Measurements from PubChem BioAssay (NCI).
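Results reflect a 48-hour exposure of cells in 96-well plates to compound at five concentrations. Here, GI50 denotes the concentration required for 50% inhibition of growth. TGI: concentration producing complete growth inhibition.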

Tests used:
Test in all cases: growth of human tumour cells (NCI), 48 h
[1] = system: DU-145 prostate
[2] = system: HCT-116 colon
[3] = system: HCT-15 colon
[4] = system: LOX IMVI melanoma
[5] = system: M14 melanoma
[6] = system: NCI-H460 lung
[7] = system: NCI-H522 lung
[8] = system: OVCAR-4 ovarian
[9] = system: SF-539 CNS
[10] = system: SNB-75 CNS

Compound	GI50 [1] [µM]	TGI [1] [µM]	GI50 [2] [nM]	TGI [2] [µM]	GI50 [3] [nM]	TGI [3] [µM]	GI50 [4] [nM]	TGI [4] [µM]	GI50 [5] [nM]	TGI [5] [µM]	GI50 [6] [µM]	TGI [6] [µM]	GI50 [7] [nM]	TGI [7] [µM]	GI50 [8] [µM]	TGI [8] [µM]	GI50 [9] [nM]	TGI [9] [µM]	GI50 [10] [nM]	TGI [10] [µM]
COc1c(B(O)O)cc(F)cc1-c1nc2ccc3[nH]ncc3c2c2c1CCCC2	1.7	12.9	322	10.3	2120	9.44	727	3.43	2640	5.44	0.822	10.5	1030	11.7	3.8	12.1	68.6	2.24	< 10	0.0607
Cc1ccc(Sc2cc3c(oc2=O)-c2ccccc2OC3O)cc1 (centres undefined)	21.8	45.2	25600	59.4	28300	76.3	18000	40	22400	43.5	22.4	54.5	18100	38.8	33.1	> 100	19300	33.8	30500	81.2
O=C1C(Cl)=C(Nc2cccc(C(F)(F)F)c2)C(=O)N1Cc1ccc(Cl)cc1	1.13	7.92	70.5	4.88	166	12.5	241	5.15	1340	18.5	< 0.0461	13.3	2110	25.2	5.32	> 50.9	128	2.09	1070	20
CCN(c1cc(C#CCN2CCOCC2)cc(C(=O)NCc2c(C)cc(C)[nH]c2=O)c1C)C1CCC(N(C)CCOC)CC1 (centres undefined)	> 100	> 100	> 100000	> 100	> 100000	> 100	> 100000	> 100	> 100000	> 100	> 100	> 100	> 100000	> 100	> 100	> 100	> 100000	> 100	53100	> 100
C[C@@H](Nc1nc(Nc2ccc(F)c(Cl)c2)nc2ccccc12)C1CC1	7.19	20.5	1490	3.2	2390	8.14	1680	3.25	1870	4.12	3.12	19.3	4320	19.5	1.73	12.9	3160	12.4	4080	22.3
CCCCCCCCCCCCCCCCCC(=O)Nc1ccn(C2OC(CO)C(O)C2O)c(=O)n1 (centres undefined)		> 100		> 100		> 100		39.4		> 77.3		> 100		75.4		> 100		> 100		> 94.6
CCN(CC)c1ccc(/C=C/C=C2\NC(=O)NC2=O)cc1	3.36	25.4	1600	30.6	2310	> 100	7150	> 100	1560	> 100	3.03	16.1	920	4.11	9.01	> 100	2330	8.6	2670	79.5
CC#Cc1nc(Nc2cc(C)[nH]n2)c2ccccc2n1	7.47	55	3660	39.4	2750	12.8	2070	4.4	4340	23.8	4.53	20.3	6240	22	3.46	> 100	3810	17.6	1480	15.4
O=c1oc2c(C(F)(F)F)cccc2cc1-c1csc(Nc2ccc(OCCF)cc2)n1	0.0462	> 50.8	32	0.54	38.9	> 100	46.7	> 42.2	28.2	1.14	0.0357		21.6	0.0766	0.077	> 66.7	24.8	0.07	30.2	12
CC1=NN(c2nc(N)nc(/C=C\c3ccc([N+](=O)[O-])s3)n2)C(C)(C)C1	> 100	> 100	> 100000	> 100	> 100000	> 100	> 100000	> 100	> 100000	> 100	> 100	> 100	> 100000	> 100	> 100	> 100	> 100000	> 100	29900	> 100
CC(C)(C)c1ccc(NS(=O)(=O)c2ccc3nc(NC(=O)c4cnccn4)[nH]c3c2)cc1	3.17	11.5	3170	19.2	774	14.6	2610	15.4	2420	17.6	2.59	11	1640	13.6	5.37	19.3	1950	4.96	1750	6.49
COc1ccc(Cn2cc3c(c2-c2cc(OC)c(OC)c(OC)c2)CCc2cnoc2-3)cc1	0.309	> 100	386	> 100	354	> 100	813	> 100	216	0.87	0.332	1.88	107	1.17	0.768	> 100	283	2.39	147	0.746
CC(=O)c1cc(O)c2ccccc2c1O	18.9	33	17600	34.5	20500	44.1	14800	39.3	19700	36.7	27	76.8	14500	35.4	14.2	41.6	22500	40.6	15700	32.8
